Laboratory results taken from patent US20130295666A1, “CRYSTALS OF GLUCOKINASE REGULATORY PROTEIN (GKRP)” (Boehringer Ingelheim International GmbH, priority 2011, published 2013).

Key:
hGKRP_C-His [1] = molecular target: T1, hGKRP_C-His (Homo sapiens, UniProt Q14397); experiment: amide hydrogen (H/D) exchange, ligand-bound vs apo-GKRP; format: binding; settings: 30 min H/D exchange; six regions; compared to apo-GKRP
T1 construct: made in house; host or cells: High FIVE insect cells (baculovirus, BAC-to-BAC)
T1 sequence (Q14397 with tags, fused parts or gaps): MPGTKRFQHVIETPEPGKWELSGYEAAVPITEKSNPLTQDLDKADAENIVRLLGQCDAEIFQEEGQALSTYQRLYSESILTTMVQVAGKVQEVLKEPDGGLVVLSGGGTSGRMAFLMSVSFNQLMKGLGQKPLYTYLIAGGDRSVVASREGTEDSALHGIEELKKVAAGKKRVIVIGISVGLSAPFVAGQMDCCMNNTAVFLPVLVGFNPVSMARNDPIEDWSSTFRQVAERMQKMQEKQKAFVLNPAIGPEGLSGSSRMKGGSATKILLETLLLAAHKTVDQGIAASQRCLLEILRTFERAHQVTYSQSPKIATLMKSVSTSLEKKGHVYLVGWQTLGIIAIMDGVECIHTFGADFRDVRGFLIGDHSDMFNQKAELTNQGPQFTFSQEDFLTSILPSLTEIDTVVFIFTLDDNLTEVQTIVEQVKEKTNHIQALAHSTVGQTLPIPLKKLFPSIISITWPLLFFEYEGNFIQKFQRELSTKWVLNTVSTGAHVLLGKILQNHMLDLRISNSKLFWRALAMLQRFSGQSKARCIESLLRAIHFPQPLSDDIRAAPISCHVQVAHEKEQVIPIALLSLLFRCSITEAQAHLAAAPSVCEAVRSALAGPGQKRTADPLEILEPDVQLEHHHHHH
Experimental: This experiment was performed to map the potential ligand binding sites via the amide hydrogen exchange behaviour of apo-GKRP in comparison to ligand-bound GKRP.
Amide hydrogen (H/D) exchange was initiated by a 20-fold dilution of 30 pmol hGKRP_C-His with or without ligand into D2O containing 100 mM HEPES, pD 7.4, 200 mM KCl, 100 mM MgCl2, and 2 mM DTT and incubated at room temperature.
After various time points (10 sec, 1 min and 30 min), the exchange reaction was quenched by decreasing the temperature to 0° C. and the pH to 2.5 with quench buffer (500 mM KH2PO4/H3PO4, pH 2.5, 2 M Urea, and 2 mM TCEP). Quenched samples were directly injected into an HPLC setup and analyzed on an electrospray ionization-quadrupole time of flight-mass spectrometer (QSTAR XL, Applied Biosystems) as described by Rist et al. (2003): Mapping temperature-induced conformational changes in the Escherichia coli heat shock transcription factor sigma 32 by amide hydrogen exchange, J. Biol. Chem., 278, 51415-51421.
The HPLC setup contained a column (2×20 mm) packed with Poroszyme immobilized pepsin (Applied Biosystems, Darmstadt, Germany). […] The deuterium content of the peptides was calculated by using the average mass difference between the isotopic envelopes of the deuterated and the undeuterated peptides. […]

rat GKRP = molecular target: T2, rat GKRP (Rattus norvegicus, UniProt Q07071); settings: Van Schaftingen 1989, Veiga-da-Cunha and Van Schaftingen 2002; cited from earlier work
T2 sequence (Q07071 1-627): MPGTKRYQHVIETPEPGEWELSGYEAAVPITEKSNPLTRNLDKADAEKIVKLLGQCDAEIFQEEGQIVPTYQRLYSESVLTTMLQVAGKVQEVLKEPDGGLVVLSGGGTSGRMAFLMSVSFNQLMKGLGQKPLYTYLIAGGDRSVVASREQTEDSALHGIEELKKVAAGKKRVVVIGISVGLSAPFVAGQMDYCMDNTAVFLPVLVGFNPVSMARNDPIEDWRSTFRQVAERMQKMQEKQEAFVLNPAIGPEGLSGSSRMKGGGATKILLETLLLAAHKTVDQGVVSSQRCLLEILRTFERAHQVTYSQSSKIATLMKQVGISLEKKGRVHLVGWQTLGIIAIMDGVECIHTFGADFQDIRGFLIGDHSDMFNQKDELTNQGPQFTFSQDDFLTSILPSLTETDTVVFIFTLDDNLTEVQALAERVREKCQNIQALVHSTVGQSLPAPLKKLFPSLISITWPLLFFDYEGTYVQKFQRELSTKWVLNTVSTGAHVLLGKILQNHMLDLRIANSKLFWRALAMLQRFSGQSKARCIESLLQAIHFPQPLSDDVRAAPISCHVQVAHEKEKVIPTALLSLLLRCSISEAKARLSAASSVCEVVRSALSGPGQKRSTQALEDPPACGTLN

hGKRP_C-His [2] = molecular target: T1, hGKRP_C-His; experiment: F1P competition with F6P in the coupled GK assay, using hGKRP_C-His; format: biochemical; settings: in the presence of 6 μM F6P, read-out: EC50 of F1P to increase apparent GK activity (inactive GK-GKRP-F6P complex towards free GK)
From the text: (§1) GKRP preparations according to examples 1 and 2 have been examined with respect to their enzymatic activity. The applied enzymatic assay measures the effect of GKRP on glucokinase activity in the form of a glucose-6-phosphate dehydrogenase coupled assay at room temperature which is a modification of the method described by Van Schaftingen and Brocklehurst et al. (Van Schaftingen, E. (1989): A protein from rat liver confers to glucokinase the property of being antagonistically regulated by fructose 6-phosphate and fructose 1-phosphate; Eur. J. Biochem., 179, 179-184; Brocklehurst, K. J., Davies, R. A. and Agius, L. (2004): Differences in regulatory properties between human and rat glucokinase regulatory protein; Biochem. J., 378, 693-697).
(§2) The reaction mixture contained 150 mM KCl, 100 mM Hepes, 1 mM ATP, 1 mM MgCl2, 2 mM NADP^+, 2 mM dithiothreitol, pH 7.4, 5 units/ml glucose-6-phosphate dehydrogenase, 0.5 mg/ml BSA, 10 mM glucose, 6 μM fructose 6-P, 15 nM human liver glucokinase and 100 nM of the respective GKRP. The enzymatic reaction was started by the addition of ATP and glucose. The increase in optical density was measured at a wavelength 340 nm over 10 minutes. From these kinetic data, the slope was calculated and graphically depicted.
(§3) This effect was investigated using both hGKRP_C-His as well as hGKRP_C-His_K326T/K327T. […]

hGKRP_C-His_K326T/K327T = molecular target: T3, hGKRP_C-His_K326T/K327T (Homo sapiens, UniProt Q14397, K326T/K327T); experiment: F1P competition with F6P in the coupled GK assay, using hGKRP_C-His_K326T/K327T; format: biochemical; settings: in the presence of 6 μM F6P, read-out: EC50 of F1P to increase apparent GK activity (inactive GK-GKRP-F6P complex towards free GK)
T3 construct: made in house; host or cells: High FIVE insect cells (baculovirus, BAC-to-BAC)
T3 sequence (Q14397 with tags, fused parts or gaps K326T/K327T): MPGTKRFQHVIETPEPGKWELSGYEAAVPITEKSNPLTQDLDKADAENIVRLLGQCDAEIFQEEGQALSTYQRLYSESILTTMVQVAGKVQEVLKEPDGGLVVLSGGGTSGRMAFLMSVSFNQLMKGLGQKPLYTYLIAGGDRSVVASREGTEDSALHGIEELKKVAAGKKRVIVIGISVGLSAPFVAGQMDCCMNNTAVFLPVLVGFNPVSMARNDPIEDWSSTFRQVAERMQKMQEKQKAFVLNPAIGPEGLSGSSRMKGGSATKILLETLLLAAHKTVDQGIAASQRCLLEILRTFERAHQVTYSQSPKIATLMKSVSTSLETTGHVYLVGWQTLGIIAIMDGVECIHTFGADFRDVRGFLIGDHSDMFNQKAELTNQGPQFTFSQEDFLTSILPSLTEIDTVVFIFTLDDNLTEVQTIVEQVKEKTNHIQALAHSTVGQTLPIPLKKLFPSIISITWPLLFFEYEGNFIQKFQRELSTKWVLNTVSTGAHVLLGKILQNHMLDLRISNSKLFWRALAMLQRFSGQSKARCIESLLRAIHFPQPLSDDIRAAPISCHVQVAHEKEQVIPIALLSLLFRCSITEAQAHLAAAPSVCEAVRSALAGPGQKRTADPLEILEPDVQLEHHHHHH
From the text: as §1, §2, §3

human liver glucokinase [3] = molecular target: T4, human liver glucokinase (human, UniProt P35557-2 1-466, limits assumed); experiment: cell-based or functional assay
T4 sequence (looked up): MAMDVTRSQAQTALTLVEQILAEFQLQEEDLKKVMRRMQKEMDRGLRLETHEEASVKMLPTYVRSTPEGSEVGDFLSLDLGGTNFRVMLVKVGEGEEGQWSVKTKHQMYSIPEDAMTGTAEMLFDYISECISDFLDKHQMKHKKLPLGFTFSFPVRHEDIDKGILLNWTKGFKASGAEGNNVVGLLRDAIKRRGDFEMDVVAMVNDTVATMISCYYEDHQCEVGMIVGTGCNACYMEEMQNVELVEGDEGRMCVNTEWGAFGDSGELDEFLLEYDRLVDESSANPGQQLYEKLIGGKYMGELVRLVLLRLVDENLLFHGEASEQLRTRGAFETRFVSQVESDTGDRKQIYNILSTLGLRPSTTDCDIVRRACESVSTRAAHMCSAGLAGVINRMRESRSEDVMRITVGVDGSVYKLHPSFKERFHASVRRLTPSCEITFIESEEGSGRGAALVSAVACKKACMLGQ

human liver glucokinase [4] = experiment: glucose-6-phosphate dehydrogenase coupled assay measuring the effect of GKRP on glucokinase activity; format: biochemical; settings: GKRP dosed in excess over GK (15 nM), alone
From the text: as §1, §2

O=C(CO)[C@@H](O)[C@H](O)[C@H](O)COP(=O)(O)O [F6P, fructose-6-phosphate]
protection of GKRP regions against H/D exchange by the ligand (hGKRP_C-His [1]): protection against H/D exchange
Kd (rat GKRP): 20000 nM

O=C(COP(=O)(O)O)[C@@H](O)[C@H](O)[C@H](O)CO [F1P, fructose-1-phosphate]
EC50 (hGKRP_C-His [2]): 6280 ± 1070 nM
protection of GKRP regions against H/D exchange by the ligand (hGKRP_C-His [1]): protection against H/D exchange
EC50 (hGKRP_C-His_K326T/K327T): 5080 ± 1380 nM
Kd (rat GKRP): 1000 nM

B1: hGKRP_C-His (human glucokinase regulatory protein with C-terminal LEHHHHHH octapeptide) (other)
chain: MPGTKRFQHVIETPEPGKWELSGYEAAVPITEKSNPLTQDLDKADAENIVRLLGQCDAEIFQEEGQALSTYQRLYSESILTTMVQVAGKVQEVLKEPDGGLVVLSGGGTSGRMAFLMSVSFNQLMKGLGQKPLYTYLIAGGDRSVVASREGTEDSALHGIEELKKVAAGKKRVIVIGISVGLSAPFVAGQMDCCMNNTAVFLPVLVGFNPVSMARNDPIEDWSSTFRQVAERMQKMQEKQKAFVLNPAIGPEGLSGSSRMKGGSATKILLETLLLAAHKTVDQGIAASQRCLLEILRTFERAHQVTYSQSPKIATLMKSVSTSLEKKGHVYLVGWQTLGIIAIMDGVECIHTFGADFRDVRGFLIGDHSDMFNQKAELTNQGPQFTFSQEDFLTSILPSLTEIDTVVFIFTLDDNLTEVQTIVEQVKEKTNHIQALAHSTVGQTLPIPLKKLFPSIISITWPLLFFEYEGNFIQKFQRELSTKWVLNTVSTGAHVLLGKILQNHMLDLRISNSKLFWRALAMLQRFSGQSKARCIESLLRAIHFPQPLSDDIRAAPISCHVQVAHEKEQVIPIALLSLLFRCSITEAQAHLAAAPSVCEAVRSALAGPGQKRTADPLEILEPDVQLEHHHHHH
IC50 of inhibition of GK activity in the presence of 6 µM fructose 6-phosphate (human liver glucokinase [3]): 74 nM
IC50 of inhibition of apparent GK enzymatic activity (glucose-6-phosphate dehydrogenase coupled assay), GKRP alone (human liver glucokinase [3]): 124 nM
inhibition of the apparent GK enzymatic activity (human liver glucokinase [4]): > 90%

B2: hGKRP_C-His_K326T/K327T (other)
chain: MPGTKRFQHVIETPEPGKWELSGYEAAVPITEKSNPLTQDLDKADAENIVRLLGQCDAEIFQEEGQALSTYQRLYSESILTTMVQVAGKVQEVLKEPDGGLVVLSGGGTSGRMAFLMSVSFNQLMKGLGQKPLYTYLIAGGDRSVVASREGTEDSALHGIEELKKVAAGKKRVIVIGISVGLSAPFVAGQMDCCMNNTAVFLPVLVGFNPVSMARNDPIEDWSSTFRQVAERMQKMQEKQKAFVLNPAIGPEGLSGSSRMKGGSATKILLETLLLAAHKTVDQGIAASQRCLLEILRTFERAHQVTYSQSPKIATLMKSVSTSLETTGHVYLVGWQTLGIIAIMDGVECIHTFGADFRDVRGFLIGDHSDMFNQKAELTNQGPQFTFSQEDFLTSILPSLTEIDTVVFIFTLDDNLTEVQTIVEQVKEKTNHIQALAHSTVGQTLPIPLKKLFPSIISITWPLLFFEYEGNFIQKFQRELSTKWVLNTVSTGAHVLLGKILQNHMLDLRISNSKLFWRALAMLQRFSGQSKARCIESLLRAIHFPQPLSDDIRAAPISCHVQVAHEKEQVIPIALLSLLFRCSITEAQAHLAAAPSVCEAVRSALAGPGQKRTADPLEILEPDVQLEHHHHHH
IC50 of decrease of apparent GK activity in the presence of 6 µM F6P (human liver glucokinase [3]): 71 nM
IC50 of decrease of apparent GK activity, GKRP alone (human liver glucokinase [3]): 116 nM
